# How the values were obtained:
# [1] = tested on: human glioma cell line U87; assay: Cell survival assay (crystal violet); assay type: cell-based; settings: U87, 50 μM
# Method: Typically, the small molecule compounds of the present invention were dissolved in DMSO at a concentration of 30 mM. The small molecule compounds were then tested under cell culture conditions at different concentrations ranging from 0, 10, 30, 50, to 100 uM. To determine cell survival after treatment, the cells were incubated with the small molecule compounds in 6-well plates for about 3 days. After removal of the cell culture medium, 1-ml of 0.5% crystal violet solution (prepared in 20% ethanol and 20% methanol) was added to stain the cells for 5 min. Then the crystal violet solution was rinsed clean with tap water. Cell survival was estimated based on the density of crystal stained plates.
# The cell-based cytotoxicity assay described herein was used to determine the effect of small molecule compounds FN1-5 and FN1-8 in the human glioma cell line U87. Viability of U87 cells was analyzed after treatment with 30 and 50 μM FN1-5 and 10, 30, and 50 μM FN1-8.
# NSCLC H460 tumor = assay: Mouse Xenograft Model (NSCLC H460); assay type: in vivo
# Method: The small molecule compound FN1-8 was tested in vivo in the mouse xenograft model bearing human cancer cells. Briefly, female athymic nude mice strain NCRNU-M (5-10 weeks old, 20-25 grams in weight; Taconic, Germantown, N.Y.) was maintained in pathogen-free conditions. Three human cancer cell lines: NSCLC H460, melanoma LOX, (both showing Gli3 activation), and colon cancer HT29 (no Gli3 activation, as a negative control), were used. Ten mice were used in each group and injected s.c. with 3×10^6 cancer cells in the dorsal area in a volume of 100 μl. After inoculation, human cancer cells were allowed to grow in mice for 7 days to become visible tumor nodules. Animals were then injected with small molecule compound FN1-8 at a dose of 50 mg/kg body weight (1 mg/mouse per day). DMSO alone was used as control. The compounds and controls were adjusted in 40 ul volume for i.p. injection in the abdomens of the mice. One mouse was sacrificed within 1 hour after the compound injection (after 6 injections) and its blood was collected. Then mass spectrometry was used to analyze the compound level in the blood sample to confirm the compound absorption into the blood stream of the mice. […] Tumor size was measured every three days, and tumor volumes were calculated using width (x) and length (y) (x^2y/2, where x<y). […]
# In vivo efficacy study of small molecule compound FN1-8 were performed using a Mouse Xenograft Model (NSCLC H460). […] Tumor size (length and width according to their shapes) was measured with a caliper every three days. Tumor volumes were calculated using the equation […].
# Three weeks after the initial tumor inoculation and the treatment as described above, tumors were dissected from the mice of each group and their weights were measured using a scale.
# The in vivo efficacy study of small molecule compounds FN1-5 and FN1-8 in the Mouse Xenograft Model (NSCLC H460) was repeated using lower doses of the compounds. […] 24 days after the initial tumor inoculation, tumors were dissected from the mice of each group and their weights were measured using a scale. […]
# SK-Mel-2 (melanoma) = assay: Apoptosis analysis (Annexin V FITC, flow cytometry); assay type: cell-based, human
# Method: (§1) Apoptosis was analyzed by using an Annexin V FITC Apoptosis Detection Kit (Biosource, Camarillo, Calif.), according to the manufacturer's protocol. After treatment with different small molecule compounds at various concentrations for about 3 days, cells were harvested by trypsinization, stained and immediately analyzed by flow cytometry (FACScan; Decton Dickinson, Franklin Lake, N.J.). Early apoptotic cells with exposed phosphatidylserine but intact cell membranes will bind to Annexin V-FITC, but not propidium iodide (PI). Cells in necrotic or late apoptotic stages will be labeled with both Annexin V-FITC and PI. “% apoptotic cells” or “% apoptosis” refers to the combined early and late apoptotic cells.
# (§2) Dose titration experiments of small molecule compound FN1-8 was performed using the melanoma cell lines A375, G361, SK-Mel-2, SK-Mel-5, and SK-Mel-28. A 375 cells were plated in 6-well plates and incubated with DM SO (control) or 2 μM, 5 μM, 10 μM, 20 μM, and 40 μM of FN1-8, respectively, for 3 days. A dramatic and dose-dependent cell killing in this cell line was observed when FN1-8 was added at 10 μM or more (data not shown). […] After 4 days of incubation with 20 μM FN1-8, approximately 20% of the Malme-3M cells, 28% of SK-Mel-2 cells, 36% of SK-Mel-5 cells, 41% of A375 cells, and 17% of G361 cells underwent apoptosis, while less than 3% of normal skin fibroblast cells underwent apoptosis under the same conditions (Table 3).
# [2] = tested on: Malme-3 (normal skin cells); assay: as above; assay type: cell-based, human; settings: 10 μM
# Method: as §1, §2
# SK-Mel-5 (melanoma) = assay: as above; assay type: cell-based, human
# Method: as §1, §2
# G361 (melanoma) = assay: as above; assay type: cell-based, human
# Method: as §1, §2
# SK-Mel-28 (melanoma) = assay: as above; assay type: cell-based, human
# Method: as §1, §2
# A375 (melanoma) = assay: as above; assay type: cell-based, human
# Method: as §1, §2
compound,measurement,setting,value
"O=C(NCCc1ccc(O)cc1)C1C(c2ccccc2)=NN(c2ccccc2)C1c1ccccc1 (stereo not drawn) [FN1-8, N-(2-(4-Hydroxyphenyl)ethyl)-1,3,5-triphenyl-4,5-dihydro-pyrazole-4-carboxyamide]",cell killing,[1],dramatic cell killing
same,tumor growth,NSCLC H460 tumor; 50 mg/kg i.p. daily for 2×6 days,significantly suppressed
same,tumor weight,"NSCLC H460 tumor; 50 mg/kg i.p. daily for 2×6 days, three weeks after inoculation",dramatically decreased
same,tumor weight,"NSCLC H460 tumor; low dose 15 mg/kg i.p. daily for 2×6 days, 24 days after inoculation",decreased
same,% of apoptotic cells,"SK-Mel-2 (melanoma); SK-Mel-2, 10 μM",9%
same,% of apoptotic cells,"SK-Mel-2 (melanoma); SK-Mel-2, 20 μM, 4 days of incubation",25.3%
same,% of apoptotic cells,[2],2.1%
same,% of apoptotic cells,"SK-Mel-5 (melanoma); SK-Mel-5, 10 μM",7.9%
same,% of apoptotic cells,"SK-Mel-5 (melanoma); SK-Mel-5, 20 μM, 4 days of incubation",34.9%
same,% of apoptotic cells,"G361 (melanoma); G361, 10 μM",7.5%
same,% of apoptotic cells,"G361 (melanoma); G361, 20 μM, 4 days of incubation",15.5%
same,% of apoptotic cells,"SK-Mel-28 (melanoma); SK-Mel-28, 10 μM",7.7%
same,% of apoptotic cells,"SK-Mel-28 (melanoma); SK-Mel-28, 20 μM",11.8%
same,% of apoptotic cells,"A375 (melanoma); A375, 10 μM",35.8%
same,% of apoptotic cells,"A375 (melanoma); A375, 20 μM, 4 days of incubation",39.7%

# Reference: patent publication US7714014B2, “Targeting GLI proteins in human cancer by small molecules” (The Regents of the University of California, priority 2005, dated 2010)
